Test results: patent US20130102463A1, “Herbicidal Compositions” (BASF SE, priority 2010, published 2013)
Several values for one entry are separate records, joined by “and”; a condition that tells them apart may be missing. Equal values may be shown once.

Columns and labels:
[1] = system: velvet leave (Abutilon theophrasti, ABUTH); assay: Example 2: herbicidal action; whole plants sprayed with A and B in the spraying chamber, high light; format: in vivo
[2] = system: moringglory (Pharbitis purpurea, PHBPU); assay: Example 1: herbicidal action; whole plants sprayed with B, PPO inhibitor applied as local leaf treatment, high light; format: in vivo
[3] = system: fleabane (Erigeron canadiensis, ERICA); assay: as above; format: in vivo, Erigeron canadensis
[4] = system: fleabane (Erigeron canadiensis); assay: Example 3: herbicidal action; whole plants sprayed with B, component A applied as local leaf treatment, high light; format: in vivo, Erigeron canadensis; conditions: ERICA
[5] = system: morningglory (Pharbitis purpurea, PHBPU); assay: Example 2: herbicidal action; whole plants sprayed with A and B in the spraying chamber, high light; format: in vivo
[6] = system: fleabane (Erigeron canadiensis, ERICA); assay: as above; format: in vivo, Erigeron canadensis
[7] = growth chamber, 4 DAT, rate 0.250 g/ha (A alone)
[8] = growth chamber, 4 DAT, rate 0.500 g/ha (A alone)
[9] = growth chamber, 14 DAT, rate 0.250 g/ha (A alone)
[10] = growth chamber, 14 DAT, rate 0.500 g/ha (A alone)
[11] = walk-in chamber, 4 DAT, rate 0.125 g/ha (A alone)
[12] = walk-in chamber, 14 DAT, rate 0.125 g/ha (A alone)
[13] = walk-in chamber, 4 DAT, rate 20 g/ha (A alone)
[14] = walk-in chamber, 14 DAT, rate 20 g/ha (A alone)
[15] = 11 DAT, rate 500 g/ha (B alone)
[16] = 4 DAT, rate 2000 g/ha (B alone)
[17] = 10 DAT, rate 2000 g/ha (B alone)
[18] = 10 DAT, rate 1000 g/ha (B alone)
[19] = 42 DAT, rate 1000 g/ha (B alone)
[20] = 5 DAT, rate 1000 g/ha (B alone)
[21] = 11 DAT, rate 1000 g/ha (B alone)

CC(C)N(C)S(=O)(=O)NC(=O)c1cc(-n2c(=O)cc(C(F)(F)F)n(C)c2=O)c(F)cc1Cl [A.1.1, saflufenacil]
% damage [1, 7]: 67%
% damage [1, 8]: 96%
% damage [1, 9]: 35%
% damage [1, 10]: 83%
% damage ([2]; 4 DAT, rate 60 g/ha (A alone)): 28%
% damage ([2]; 10 DAT, rate 60 g/ha (A alone)): 35%
% damage ([3]; 7 DAT, rate 60 g/ha (A alone)): 10%
% damage ([3]; 10 DAT, rate 60 g/ha (A alone)): 56%
% damage ([3]; 11 DAT, rate 60 g/ha (A alone)): 10% and 18% and 19%
% damage ([3]; 42 DAT, rate 60 g/ha (A alone)): 45%
% damage ([4]; 2 DAT, rate 60 g/ha (A alone)): 55%
% damage ([4]; 8 DAT, rate 60 g/ha (A alone)): 34%
% damage [5, 7]: 95%
% damage [5, 8]: 98%
% damage [5, 9]: 85%
% damage [5, 10]: 93%
% damage ([6]; walk-in chamber, 1 DAT, rate 0.125 g/ha (A alone)): 38%
% damage ([6]; walk-in chamber, 1 DAT, rate 0.250 g/ha (A alone)): 70%
% damage ([6]; walk-in chamber, 1 DAT, rate 0.350 g/ha (A alone)): 65%
% damage [6, 11]: 38%
% damage ([6]; walk-in chamber, 4 DAT, rate 0.250 g/ha (A alone)): 83%
% damage ([6]; walk-in chamber, 4 DAT, rate 0.350 g/ha (A alone)): 90%
% damage [6, 12]: 18%
% damage ([6]; walk-in chamber, 14 DAT, rate 0.250 g/ha (A alone)): 67%
% damage ([6]; walk-in chamber, 14 DAT, rate 0.350 g/ha (A alone)): 75%

CCOC(=O)COc1ncccc1Oc1cc(-n2c(=O)cc(C(F)(F)F)n(C)c2=O)c(F)cc1Cl [A.1.2, ethyl[3-[2-chloro-4-fluoro-5-(1-methyl-6-trifluoromethyl-2,4-dioxo-1,2,3,4-tetrahydropyrimidin-3-yl)phenoxy]-2-pyridyloxy]acetate]
% damage ([5]; walk-in chamber, 4 DAT, rate 0.5 g/ha (A alone)): 99%
% damage ([5]; walk-in chamber, 14 DAT, rate 0.5 g/ha (A alone)): 96%
% damage ([6]; walk-in chamber, 4 DAT, rate 10 g/ha (A alone)): 95%
% damage ([6]; walk-in chamber, 14 DAT, rate 10 g/ha (A alone)): 80%

CCOC(=O)C(Cl)Cc1cc(-n2nc(C)n(C(F)F)c2=O)c(F)cc1Cl (centres unmarked) [A.2.1, carfentrazone-ethyl]
% damage ([5]; growth chamber, 4 DAT, rate 0.5 g/ha (A alone)): 94%
% damage ([5]; growth chamber, 14 DAT, rate 0.5 g/ha (A alone)): 83%
% damage ([6]; growth chamber, 4 DAT, rate 10 g/ha (A alone)): 57%
% damage ([6]; growth chamber, 14 DAT, rate 10 g/ha (A alone)): 47%

CCOc1cc(Oc2ccc(C(F)(F)F)cc2Cl)ccc1[N+](=O)[O-] [A.4.1, oxyfluorofen]
% damage [1, 13]: 93%
% damage [1, 14]: 80%
% damage ([5]; walk-in chamber, 4 DAT, rate 5 g/ha (A alone)): 94%
% damage [5, 13]: 99%
% damage ([5]; walk-in chamber, 14 DAT, rate 5 g/ha (A alone)): 83%
% damage [5, 14]: 95%

C#CCN1C(=O)COc2cc(F)c(-n3c(=O)n(C)c(=S)n(C)c3=O)cc21 [A.5.1, 3-[7-fluoro-3-oxo-4-(prop-2-ynyl)-3,4-dihydro-2H-benzo[1,4]oxazin-6-yl]-1,5-dimethyl-6-thioxo-[1,3,5]triazinan-2,4-dione]
% damage ([1]; walk-in chamber, 4 DAT, rate 1 g/ha (A alone)): 94%
% damage ([1]; walk-in chamber, 14 DAT, rate 1 g/ha (A alone)): 55%
% damage [5, 11]: 92%
% damage [5, 12]: 70%

C#CCN1C(=O)COc2cc(F)c(N3C(=O)C4=C(CCCC4)C3=O)cc21 [A.5.2, flumioxazin]
% damage ([1]; growth chamber, 4 DAT, rate 2 g/ha (A alone)): 98%
% damage ([1]; growth chamber, 14 DAT, rate 2 g/ha (A alone)): 98%

CC(C)(C)CC(C)(C)c1cc(Cc2cc(C(C)(C)CC(C)(C)C)cc(-n3nc4ccccc4n3)c2O)c(O)c(-n2nc3ccccc3n2)c1 [B.1.1.1, 2,2-methylenbis-6-(benzotriazol-2-yl)-4-tert-octylphenol]
% damage ([4]; 2 DAT, rate 500 g/ha (B alone)): 0%
% damage ([4]; 8 DAT, rate 500 g/ha (B alone)): 0%

CCCCN1C(=O)c2cc3nn(-c4cc(C(C)(C)CC(C)(C)C)cc(C(C)(C)c5ccccc5)c4O)nc3cc2C1=O [B.1.1.2]
% damage ([4]; 2 DAT, rate 500 g/ha (B alone)): 0%
% damage ([4]; 8 DAT, rate 500 g/ha (B alone)): 0%

CCCCC(CC)COC(=O)C(C#N)=C(c1ccccc1)c1ccccc1 (centres unmarked) [B.1.2.2, 2-cyano-3,3-diphenylacrylic acid-2′-ethylhexyl ester]
% damage ([3]; 7 DAT, rate 500 g/ha (B alone)): 10%
% damage [3, 15]: 10%

CCCCC(CC)COC(=O)C=Cc1ccc(OC)cc1 (centres unmarked) [B.1.5.1, 2-ethylhexyl 4-methoxycinnamate]
% damage ([4]; 2 DAT, rate 500 g/ha (B alone)): 0%
% damage ([4]; 8 DAT, rate 500 g/ha (B alone)): 0%

CCCCCCOC(=O)c1ccccc1C(=O)c1ccc(N(CC)CC)cc1O [B.1.6.1, 2-(4-diethylamino-2-hydroxybenzoyl)-benzoic acid hexylester]
% damage ([3]; 7 DAT, rate 500 g/ha (B alone)): 0%
% damage [3, 15]: 0%

O=C(c1ccccc1)c1ccc(O)cc1O [B.1.6.3, 2,4-dihydroxybenzo-phenone]
% damage [2, 16]: 39%
% damage [2, 17]: 20%
% damage [3, 18]: 13%
% damage [3, 19]: 0%

COc1ccc(C(=O)c2ccccc2)c(O)c1 [B.1.6.4, 2-hydroxy-4-methoxybenzophenone]
% damage [2, 16]: 15%
% damage [2, 17]: 10%
% damage ([3]; 5 DAT, rate 500 g/ha (B alone)): 5%
% damage [3, 18]: 0%
% damage [3, 15]: 5%
% damage [3, 19]: 13%
% damage ([4]; 2 DAT, rate 500 g/ha (B alone)): 0%
% damage ([4]; 8 DAT, rate 500 g/ha (B alone)): 0%

CCN(CC)c1ccc(C(=O)c2ccccc2C(=O)N2CCN(C(=O)c3ccccc3C(=O)c3ccc(N(CC)CC)cc3O)CC2)c(O)c1 [B.1.6.5]
% damage ([4]; 2 DAT, rate 500 g/ha (B alone)): 0%
% damage ([4]; 8 DAT, rate 500 g/ha (B alone)): 0%

COc1cc(O)c(C(=O)c2ccccc2)cc1S(=O)(=O)O [B.1.7.1, 2-hydroxy-4-methoxy-benzophenone-5-sulfonic acid]
% damage ([4]; 2 DAT, rate 500 g/ha (B alone)): 0%
% damage ([4]; 8 DAT, rate 500 g/ha (B alone)): 0%

CCCCC(CC)COC(=O)c1ccc(Nc2nc(Nc3ccc(C(=O)OCC(CC)CCCC)cc3)nc(Nc3ccc(C(=O)OCC(CC)CCCC)cc3)n2)cc1 (centres unmarked) [B.1.11.1, 2,4,6-trinanilino-p-(carbo-2′-ethyl-hexyl-1′-oxy)-1,3,5-triazine]
% damage ([4]; 2 DAT, rate 500 g/ha (B alone)): 0%
% damage ([4]; 8 DAT, rate 500 g/ha (B alone)): 0%

CNC(=O)c1ccc(Nc2nc(NC)nc(Nc3ccc(/C=C/c4ccc(Nc5nc(NC)nc(Nc6ccc(C(=O)NC)cc6)n5)cc4S(=O)(=O)[O-])c(S(=O)(=O)[O-])c3)n2)cc1.[Na+].[Na+] [B.1.16.1]
% damage ([4]; 2 DAT, rate 500 g/ha (B alone)): 0%
% damage ([4]; 8 DAT, rate 500 g/ha (B alone)): 0%

CCOC(=O)C(C#N)=C1C=C(NC(C)CC)CC(C)(C)C1 (centres unmarked) [B.1.17.1, 2-cyano-2-[5,5-dimethyl-3-[(1-methylpropyl)amino]-2-cyclohexen-1-ylidene]-acetic acid ethyl ester]
% damage ([4]; 2 DAT, rate 500 g/ha (B alone)): 0%
% damage ([4]; 2 DAT, rate 1000 g/ha (B alone)): 0%
% damage ([4]; 8 DAT, rate 500 g/ha (B alone)): 0%
% damage ([4]; 8 DAT, rate 1000 g/ha (B alone)): 0%

CC(C)c1cccc(C(C)C)c1N1C(=O)c2cccc3c(Oc4ccc(C(C)(C)CC(C)(C)C)cc4)ccc(c23)C1=O [B.1.18.1, 2-[2,6-bis(1-methylethyl)phenyl]-6-[4-(1,1,3,3-tetramethylbutyl)phenoxy]-1H-benz[de]isoquinoline-1,3(2H)-dione]
% damage ([4]; 2 DAT, rate 500 g/ha (B alone)): 0%
% damage ([4]; 8 DAT, rate 500 g/ha (B alone)): 0%

CCCOC(=O)c1cc(O)c(=O)c2c(O)c(O)ccc2c1 [B.1.19.1, 3,4,6-trihydroxy-5-oxo-5H-benzocycloheptene-8-carboxylic acid propyl ester]
% damage ([4]; 2 DAT, rate 250 g/ha (B alone)): 0%
% damage ([4]; 2 DAT, rate 500 g/ha (B alone)): 0%
% damage ([4]; 8 DAT, rate 250 g/ha (B alone)): 0%
% damage ([4]; 8 DAT, rate 500 g/ha (B alone)): 0%

Cc1c(C)c2c(c(C)c1O)CC[C@@](C)(CCC[C@H](C)CCC[C@H](C)CCCC(C)C)O2 [B.3.4.1, α-tocopherol]
% damage ([3]; 5 DAT, rate 7000 g/ha (B alone)): 0%
% damage ([3]; 11 DAT, rate 7000 g/ha (B alone)): 0%

c1ccc(Nc2ccccc2)cc1 [B.3.19.1, diphenylamine]
% damage [3, 20]: 0%
% damage [3, 21]: 0%

Oc1ccc(C=Cc2cc(O)cc(O)c2)cc1 [B.3.27.1, resveratrol]
% damage [3, 20]: 10%
% damage [3, 21]: 0%

CC1=CC(=O)CC(C)(C)[C@@]1(O)/C=C/C(C)=C\C(=O)O [B.3.28.1, abscisic acid]
% damage [3, 20]: 1%
% damage [3, 21]: 0%

CCCOC(=O)c1cc(O)c(O)c(O)c1 [B.3.29.1, n-propylgallate]
% damage [3, 20]: 0% and 5%
% damage [3, 21]: 0% and 8%
